Results reported in article PMC6980656 (Cell chemical biology, 2019).
One block for each compound: values may come before it.

Legend:
Wee1 [1] = biological target: T1, Wee1 (Homo sapiens, UniProt P30291); assay: Immunoblot of Wee1 degradation in parental MOLT4 cells; type: cell-based
MOLT4 cells [2] = assay: Cell cycle analysis by propidium iodide staining, parental MOLT4; type: cell-based; details: PI staining; for effect on cell cycle (G2/M proportion): 100 nM
[3] = tested on: 300 suspension and hematopoietic cancer cell lines; assay: PRISM pooled cytotoxicity assay; type: cell-based
OVCAR8 cells = assay: Synergy co-treatment, CellTiter-Glo in OVCAR8 cells; type: cell-based; details: for synergy with Olaparib: 72 hr co-treatment
[4] = tested on: pCDK1 Y15, PARP cleavage, γH2Ax; assay: Immunoblot of downstream markers; type: cell-based; details: MOLT4 cells; for downstream changes (pCDK1 Y15, PARP cleavage, γH2Ax): 100 nM
[5] = tested on: MCF10A non-transformed mammary epithelial cell line; assay: Image-based cell cycle assay in MCF10A
[6] = tested on: BT549, HCC1806, COV362, Kuramochi, OVCAR8 cell lines; assay: Image-based cell cycle assay in TNBC and ovarian cancer cell lines
[7] = tested on: phosphorylation of CDK1 at Tyr15 (pCDK1 Y15); assay: Immunoblot of pCDK1 Y15 in CRBN−/− MOLT4 cells; type: cell-based; details: 5 hrs
[8] = tested on: phosphorylation of CDK1 at Tyr15 (pCDK1 Y15); assay: Immunoblot of pCDK1 Y15 in parental MOLT4 cells; type: cell-based
Wee1 [9] = biological target: T1, Wee1; assay: KINOMEscan profiling; type: binding; details: 1 μM
[10] = tested on: OCE1 non-malignant ovarian line; assay: Viability in non-malignant ovarian line; type: cell-based
MOLT4 cells [11] = assay: CellTiter-Glo cell viability, parental MOLT4; type: cell-based; details: for IC50: Homo sapiens, MOLT-4, 72 h, read-out: IC50, antiproliferative activity
CRBN−/− MOLT4 cells = assay: Cell cycle analysis by propidium iodide staining, CRBN−/− MOLT4; type: cell-based; details: 100 nM, 24 hrs
Wee1 [12] = biological target: T1, Wee1; assay: Immunoblot of Wee1 degradation in CRBN−/− MOLT4 cells; type: cell-based; details: 5 hrs
Wee1 [13] = biological target: T1, Wee1; assay: LanthaScreen FRET-based assay; type: binding; details: for engagement of recombinant Wee1: LanthaScreen, Table S1
PLK1 [14] = biological target: T2, PLK1 (Homo sapiens, UniProt P53350); assay: KINOMEscan profiling; type: binding; details: 1 μM
Ikaros (IKZF1) = Ikaros (IKZF1) (Homo sapiens, UniProt Q13422+Q96SW2); assay: IKZF1 degradation, proteomics/immunoblotting; type: cell-based
PLK1 [15] = biological target: T2, PLK1; assay: PLK1 abundance by proteomics and immunoblot in MOLT4 cells; type: cell-based; details: proteomics (100 nM, 2 hrs) or immunoblot
Wee1 [16] = biological target: T1, Wee1; assay: Wee1 degradation in OVCAR8 cells; type: cell-based
Aiolos (IKZF3) = Aiolos (IKZF3) (Homo sapiens, UniProt Q96SW2+Q9UKT9); assay: IKZF3 degradation, proteomics/immunoblotting; type: cell-based
ZFP91 = ZFP91 (Homo sapiens, UniProt Q96JP5+Q96SW2); assay: ZFP91 abundance by proteomics in MOLT4 cells; type: cell-based; details: 100 nM, 2 hrs
MOLT4 CRBN−/− cells = assay: CellTiter-Glo cell viability, CRBN−/− MOLT4; type: cell-based; details: 72 hrs
[17] = tested on: OVCAR8, COV283, and Kuramochi ovarian cancer cell lines; assay: Viability in ovarian cancer cell line panel; type: cell-based
[18] = MOLT4 cells, 2 hrs pretreatment then 5 hrs co-treatment
[19] = 24 hr treatment, immunoblotting

T2 sequence (P53350 whole entry): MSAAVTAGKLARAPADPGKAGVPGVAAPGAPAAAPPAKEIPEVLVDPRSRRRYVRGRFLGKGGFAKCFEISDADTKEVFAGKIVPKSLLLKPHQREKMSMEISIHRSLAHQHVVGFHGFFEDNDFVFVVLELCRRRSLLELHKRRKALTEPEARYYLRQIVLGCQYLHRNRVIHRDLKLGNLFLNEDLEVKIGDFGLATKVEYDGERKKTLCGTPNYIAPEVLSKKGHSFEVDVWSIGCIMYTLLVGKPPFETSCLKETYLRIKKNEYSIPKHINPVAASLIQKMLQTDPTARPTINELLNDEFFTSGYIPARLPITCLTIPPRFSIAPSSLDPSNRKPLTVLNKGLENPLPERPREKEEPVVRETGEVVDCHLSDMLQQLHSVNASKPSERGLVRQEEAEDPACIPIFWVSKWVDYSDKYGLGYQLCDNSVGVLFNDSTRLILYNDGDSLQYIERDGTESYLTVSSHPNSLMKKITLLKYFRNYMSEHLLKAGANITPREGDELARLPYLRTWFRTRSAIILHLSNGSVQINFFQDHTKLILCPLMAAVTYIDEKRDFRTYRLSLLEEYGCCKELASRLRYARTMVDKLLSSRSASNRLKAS
T1 sequence (P30291 whole entry): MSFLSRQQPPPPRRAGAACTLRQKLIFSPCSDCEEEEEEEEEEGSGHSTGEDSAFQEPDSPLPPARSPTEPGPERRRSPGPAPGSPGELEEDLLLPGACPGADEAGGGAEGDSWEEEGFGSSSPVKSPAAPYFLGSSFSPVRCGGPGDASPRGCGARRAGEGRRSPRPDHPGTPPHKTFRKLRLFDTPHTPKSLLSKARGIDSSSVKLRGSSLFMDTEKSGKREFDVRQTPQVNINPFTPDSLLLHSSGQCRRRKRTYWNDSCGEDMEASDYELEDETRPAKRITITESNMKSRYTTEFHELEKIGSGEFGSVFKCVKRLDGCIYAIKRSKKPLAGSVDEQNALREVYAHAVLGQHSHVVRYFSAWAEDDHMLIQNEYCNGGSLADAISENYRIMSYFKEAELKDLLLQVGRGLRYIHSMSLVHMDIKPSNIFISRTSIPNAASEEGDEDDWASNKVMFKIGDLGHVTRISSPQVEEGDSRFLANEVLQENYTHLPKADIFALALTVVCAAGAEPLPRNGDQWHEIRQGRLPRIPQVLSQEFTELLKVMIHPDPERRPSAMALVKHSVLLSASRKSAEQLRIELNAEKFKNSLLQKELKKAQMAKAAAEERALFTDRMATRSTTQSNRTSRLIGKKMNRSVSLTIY
Sequence of Aiolos (IKZF3) (Q9UKT9 whole entry): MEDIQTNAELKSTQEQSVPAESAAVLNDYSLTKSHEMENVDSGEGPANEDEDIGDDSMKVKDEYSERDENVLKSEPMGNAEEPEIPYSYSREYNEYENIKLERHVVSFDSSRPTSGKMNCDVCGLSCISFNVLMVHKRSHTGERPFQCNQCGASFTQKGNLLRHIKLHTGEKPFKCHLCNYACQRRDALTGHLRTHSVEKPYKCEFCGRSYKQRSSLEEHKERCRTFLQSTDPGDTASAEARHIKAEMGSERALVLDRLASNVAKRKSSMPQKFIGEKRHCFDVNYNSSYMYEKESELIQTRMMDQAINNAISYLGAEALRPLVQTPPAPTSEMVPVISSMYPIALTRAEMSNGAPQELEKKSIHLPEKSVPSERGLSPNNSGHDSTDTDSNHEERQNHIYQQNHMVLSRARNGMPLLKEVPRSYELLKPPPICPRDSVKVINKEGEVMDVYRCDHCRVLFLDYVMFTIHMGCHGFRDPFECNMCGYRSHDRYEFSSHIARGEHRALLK
Sequence of Aiolos (IKZF3) (Q96SW2 whole entry): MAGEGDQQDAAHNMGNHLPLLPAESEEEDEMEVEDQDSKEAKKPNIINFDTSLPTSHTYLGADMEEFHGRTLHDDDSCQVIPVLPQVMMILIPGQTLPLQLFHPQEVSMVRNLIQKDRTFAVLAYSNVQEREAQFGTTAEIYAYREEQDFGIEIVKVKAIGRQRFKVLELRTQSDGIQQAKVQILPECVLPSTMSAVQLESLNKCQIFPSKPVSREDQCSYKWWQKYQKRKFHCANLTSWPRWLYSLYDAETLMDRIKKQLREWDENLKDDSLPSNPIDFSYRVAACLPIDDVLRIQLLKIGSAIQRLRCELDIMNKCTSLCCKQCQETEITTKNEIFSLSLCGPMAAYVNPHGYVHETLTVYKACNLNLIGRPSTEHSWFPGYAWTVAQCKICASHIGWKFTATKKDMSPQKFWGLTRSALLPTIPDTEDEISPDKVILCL
Sequence of Aiolos (IKZF3) (Q16531 whole entry partner): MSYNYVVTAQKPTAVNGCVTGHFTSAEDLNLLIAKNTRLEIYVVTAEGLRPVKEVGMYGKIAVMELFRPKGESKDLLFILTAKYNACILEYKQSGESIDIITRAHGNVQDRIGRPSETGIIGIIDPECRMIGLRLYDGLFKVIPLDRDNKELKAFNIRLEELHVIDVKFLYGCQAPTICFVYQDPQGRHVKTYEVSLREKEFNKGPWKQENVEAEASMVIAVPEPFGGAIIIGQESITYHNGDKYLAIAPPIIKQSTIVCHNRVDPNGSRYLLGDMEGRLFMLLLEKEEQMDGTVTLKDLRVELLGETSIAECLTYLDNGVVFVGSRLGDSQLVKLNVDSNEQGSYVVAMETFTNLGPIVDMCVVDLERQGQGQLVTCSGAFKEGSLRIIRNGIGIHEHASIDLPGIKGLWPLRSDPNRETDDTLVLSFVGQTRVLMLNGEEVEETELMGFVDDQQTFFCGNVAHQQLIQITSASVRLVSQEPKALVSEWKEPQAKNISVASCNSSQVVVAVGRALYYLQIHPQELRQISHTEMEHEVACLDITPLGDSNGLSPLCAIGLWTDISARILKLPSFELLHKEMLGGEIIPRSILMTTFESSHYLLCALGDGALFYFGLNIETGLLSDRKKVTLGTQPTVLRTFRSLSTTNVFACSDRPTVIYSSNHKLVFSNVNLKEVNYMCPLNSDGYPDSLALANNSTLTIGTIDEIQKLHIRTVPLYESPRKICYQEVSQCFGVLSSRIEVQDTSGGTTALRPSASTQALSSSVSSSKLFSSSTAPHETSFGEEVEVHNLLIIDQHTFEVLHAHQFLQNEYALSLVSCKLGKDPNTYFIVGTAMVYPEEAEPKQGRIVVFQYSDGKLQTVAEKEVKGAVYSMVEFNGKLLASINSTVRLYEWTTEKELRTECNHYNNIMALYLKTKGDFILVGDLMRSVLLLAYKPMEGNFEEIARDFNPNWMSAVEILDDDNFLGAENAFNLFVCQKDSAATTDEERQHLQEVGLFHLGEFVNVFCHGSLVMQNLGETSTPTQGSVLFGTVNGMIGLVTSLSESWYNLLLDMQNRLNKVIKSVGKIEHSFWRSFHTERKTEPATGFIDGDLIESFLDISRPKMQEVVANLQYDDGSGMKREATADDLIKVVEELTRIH
Sequence of Ikaros (IKZF1) (Q13422 whole entry): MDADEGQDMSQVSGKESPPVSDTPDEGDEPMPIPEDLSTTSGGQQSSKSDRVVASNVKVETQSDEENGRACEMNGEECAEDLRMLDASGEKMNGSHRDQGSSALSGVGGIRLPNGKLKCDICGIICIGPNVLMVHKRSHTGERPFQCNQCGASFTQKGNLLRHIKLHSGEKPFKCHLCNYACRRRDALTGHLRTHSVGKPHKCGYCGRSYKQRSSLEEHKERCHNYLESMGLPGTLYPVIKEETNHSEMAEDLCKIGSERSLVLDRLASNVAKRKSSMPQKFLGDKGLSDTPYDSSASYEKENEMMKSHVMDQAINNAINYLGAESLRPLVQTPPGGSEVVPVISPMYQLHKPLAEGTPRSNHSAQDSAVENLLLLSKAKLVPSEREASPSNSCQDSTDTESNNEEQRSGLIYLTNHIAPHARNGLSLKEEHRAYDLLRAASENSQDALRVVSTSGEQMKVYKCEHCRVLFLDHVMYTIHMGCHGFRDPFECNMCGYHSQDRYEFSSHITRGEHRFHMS
Sequence of Ikaros (IKZF1) (Q96SW2 whole entry): as the sequence (Q96SW2 whole entry) above
Sequence of Ikaros (IKZF1) (Q16531 whole entry partner): as the sequence (Q16531 whole entry partner) above
Sequence of ZFP91 (Q96JP5 whole entry): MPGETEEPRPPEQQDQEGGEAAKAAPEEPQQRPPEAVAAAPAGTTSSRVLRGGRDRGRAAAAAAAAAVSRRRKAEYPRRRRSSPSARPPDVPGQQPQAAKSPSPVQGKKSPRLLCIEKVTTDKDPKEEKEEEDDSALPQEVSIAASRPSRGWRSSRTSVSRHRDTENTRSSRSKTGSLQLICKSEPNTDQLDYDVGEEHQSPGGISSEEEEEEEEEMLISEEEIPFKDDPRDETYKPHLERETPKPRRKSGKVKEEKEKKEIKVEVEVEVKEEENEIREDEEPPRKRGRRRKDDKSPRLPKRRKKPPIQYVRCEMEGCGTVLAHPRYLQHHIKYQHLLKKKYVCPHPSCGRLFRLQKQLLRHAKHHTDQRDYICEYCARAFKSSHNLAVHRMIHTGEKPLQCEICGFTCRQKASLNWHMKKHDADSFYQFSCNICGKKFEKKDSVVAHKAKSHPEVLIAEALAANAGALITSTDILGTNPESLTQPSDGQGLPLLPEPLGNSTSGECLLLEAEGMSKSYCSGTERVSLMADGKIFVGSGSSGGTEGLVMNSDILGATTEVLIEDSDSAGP
Sequence of ZFP91 (Q96SW2 whole entry): as the sequence (Q96SW2 whole entry) above
Sequence of ZFP91 (Q16531 whole entry partner): as the sequence (Q16531 whole entry partner) above

Wee1 degradation (immunoblot, in words) (Wee1 [1]; MOLT4 cells, 5 hr treatment): induced Wee1 degradation
engagement of recombinant Wee1 (Wee1 [13]): potently engaged recombinant Wee1
Compound: C=CCn1c(=O)c2cnc(Nc3ccc(N4CCN(CCCCCCNc5cccc6c5C(=O)N(C5CCC(=O)NC5=O)C6=O)CC4)cc3)nc2n1-c1cccc(C(C)(C)O)n1 (stereo not shown) [ZNL-02-040, 4-((6-(4-(4-((2-Allyl-1-(6-(2-hydroxypropan-2-yl)pyridin-2-yl)-3-oxo-2,3-dihydro-1H-pyrazolo[3,4-d]pyrimidin-6-yl)amino)phenyl)piperazin-1-yl)hexyl)amino)-2-(2,6-dioxopiperidin-3-yl)isoindoline-1,3-dione]

Wee1 degradation (immunoblot, in words) (Wee1 [1]; MOLT4 cells, 5 hr treatment): insufficient to induce Wee1 degradation
Compound: Nc1cccc2c1C(=O)N(C1CCC(=O)NC1=O)C2=O (stereo not shown) [pomalidomide, reference compound]
cytotoxicity (MOLT4 cells [11]; alone, Fig. S3): no detectable cytotoxicity
synergy with Olaparib (OVCAR8 cells): not synergistic
synergy with AZD1775 (OVCAR8 cells; co-treatment): not synergistic
effect on pCDK1 Y15, apoptosis, DNA damage ([4]; 24 hr, 1 μM): did not affect phosphorylation of CDK1 Y15, apoptosis, or levels of DNA damage

Wee1 degradation (immunoblot, in words) (Wee1 [1]; MOLT4 cells, 5 hr treatment): induced Wee1 degradation
concentration sufficient to degrade Wee1 (Wee1 [1]; MOLT4 cells, 5 hr treatment): 100 nM
IC50 (Wee1 [13]): 1 to 10 nM
Compound: C=CCn1c(=O)c2cnc(Nc3ccc(N4CCN(CCOCCOCCOCCNc5cccc6c5C(=O)N(C5CCC(=O)NC5=O)C6=O)CC4)cc3)nc2n1-c1cccc(C(C)(C)O)n1 (stereo not shown) [ZNL-02-047, 4-((2-(2-(2-(2-(4-(4-((2-Allyl-1-(6-(2-hydroxypropan-2-yl)pyridin-2-yl)-3-oxo-2,3-dihydro-1H-pyrazolo[3,4-d]pyrimidin-6-yl)amino)phenyl)piperazin-1-yl)ethoxy)ethoxy)ethoxy)ethyl)amino)-2-(2,6-dioxopiperidin-3-yl)isoindoline-1,3-dione]

The next lines start with the compound.

Compound: C=CCn1c(=O)c2cnc(Nc3ccc(N4CCN(CCCNc5cccc6c5C(=O)N(C5CCC(=O)N(C)C5=O)C6=O)CC4)cc3)nc2n1-c1cccc(C(C)(C)O)n1 (stereo not shown) [ZNL-02-178, 4-((3-(4-(4-((2-allyl-1-(6-(2-hydroxypropan-2-yl)pyridin-2-yl)-3-oxo-2,3-dihydro-1H-pyrazolo[3,4-d]pyrimidin-6-yl)amino)phenyl)piperazin-1-yl)propyl)amino)-2-(1-methyl-2,6-dioxopiperidin-3-yl)is oindoline-1,3-dione]
Wee1 degradation (immunoblot, in words) (Wee1 [1]; MOLT4 cells, 5 hr treatment): inhibits but does not degrade Wee1
effect on Wee1 protein levels (Wee1 [1]; MOLT4 cells, out to 48 hrs after treatment): no effect on Wee1 protein levels
effect on cell cycle (G2/M proportion) (MOLT4 cells [2]): did not appreciably affect the cell cycle
potency in PRISM relative to ZNL-02-096 [3]: uniformly less potent
synergy with Olaparib (OVCAR8 cells): less synergistic activity with Olaparib than ZNL-02-096 at low doses
downstream changes (pCDK1 Y15, PARP cleavage, γH2Ax) ([4]; 24 hr): did not produce these downstream changes

Compound: C=CCn1c(=O)c2cnc(Nc3ccc(N4CCN(CCCNc5cccc6c5C(=O)N(C5CCC(=O)NC5=O)C6=O)CC4)cc3)nc2n1-c1cccc(C(C)(C)O)n1 (stereo not shown) [ZNL-02-096, 4-((3-(4-(4-((2-Allyl-1-(6-(2-hydroxypropan-2-yl)pyridin-2-yl)-3-oxo-2,3-dihydro-1H-pyrazolo[3,4-d]pyrimidin-6-yl)amino)phenyl)piperazin-1-yl)propyl)amino)-2-(2,6-dioxopiperidin-3-yl)isoindoline-1,3-dione]
cell cycle changes [5]: neither ZNL-02-096 nor AZD1775 induced significant cell cycle changes
G2/M phase accumulation [6]: induced G2/M phase accumulation at lower doses than either ZNL-02-178 or AZD1775
dose from which pCDK1 Y15 is decreased [7]: 1 μM
dose from which pCDK1 Y15 is reduced ([8]; parental MOLT4 cells, 5 hrs): 100 nM
KINOMEscan engagement of Wee1 (Wee1 [9]): strong engagement
cytotoxicity [10]: little cytotoxicity
IC50 (MOLT4 cells [11]): 390 nM
time to complete Wee1 degradation (Wee1 [1]; MOLT4 cells, 100 nM): ≤ 3 h
Wee1 degradation (Wee1 [1]; MOLT4 cells, 100 nM, within 30 min): over 50%
Wee1 degradation by ZNL-02-096 after MLN4924 pretreatment (Wee1 [1]; [18]): prevented
Wee1 degradation by ZNL-02-096 after carfilzomib pretreatment (Wee1 [1]; [18]): rescued
Wee1 degradation by ZNL-02-096 after pretreatment with excess AZD1775 (Wee1 [1]; [18]): prevented ZNL-02-096-induced Wee1 degradation
Wee1 degradation by ZNL-02-096 after pretreatment with excess pomalidomide (Wee1 [1]; [18]): only partial rescue
Wee1 degradation (immunoblot, in words) (Wee1 [1]; MOLT4 cells, 5 hr treatment): degradation was most pronounced
duration of sustained Wee1 loss (Wee1 [1]; MOLT4 cells, single 100 nM treatment): at least 48 hrs
concentration of maximal Wee1 degradation (Wee1 [1]; parental MOLT4 cells, 5 hrs): 100 nM
concentration at which hook effect is apparent (Wee1 [1]; parental MOLT4 cells, 5 hrs, top concentration): 10 µM
G2/M accumulation (CRBN−/− MOLT4 cells): absent
effect on Wee1 abundance (Wee1 [12]): did not affect Wee1 abundance
engagement of recombinant Wee1 (Wee1 [13]): potently engaged recombinant Wee1
KINOMEscan engagement of PLK1 (PLK1 [14]): strong engagement
effect on cell cycle (G2/M proportion) (MOLT4 cells [2]): increased the proportion of MOLT4 cells in G2/M in a time-dependent manner
IKZF1 degradation (Ikaros (IKZF1); [19]): degradation of both IKZF1 and IKZF3 was apparent
IKZF1 degradation (Ikaros (IKZF1); short time points): no degradation of either IKZF1 or IKZF3
PLK1 downregulation (PLK1 [15]): No downregulation of PLK1
IC50 ([3]; read-out: IC50, PRISM): < 1000 nM
concentration of maximal Wee1 degradation (Wee1 [16]): 100 nM
synergy with Olaparib (OVCAR8 cells): synergized with Olaparib
IKZF3 degradation (Aiolos (IKZF3); [19]): degradation of both IKZF1 and IKZF3 was apparent
IKZF3 degradation (Aiolos (IKZF3); short time points): no degradation of either IKZF1 or IKZF3
ZFP91 degradation (ZFP91): low levels of ZFP91 degradation
fold lower dose than AZD1775 for the same downstream effects [4]: 10 fold
concentration producing reduced pCDK1 Y15, PARP cleavage and γH2Ax ([4]; 24 hr): 100 nM
shift in IC50, MOLT4 CRBN−/− versus parental cells (MOLT4 CRBN−/− cells): approximately 6 fold
cell death [17]: induced potent cell death

Compound: C=CCn1c(=O)c2cnc(Nc3ccc(N4CCN(CCCNC(=O)CCOCCOCCNc5cccc6c5C(=O)N(C5CCC(=O)NC5=O)C6=O)CC4)cc3)nc2n1-c1cccc(C(C)(C)O)n1 (stereo not shown) [ZNL-02-012, N-(3-(4-(4-((2-allyl-1-(6-(2-hydroxypropan-2-yl)pyridin-2-yl)-3-oxo-2,3-dihydro-1H-pyrazolo[3,4-d]pyrimidin-6-yl)amino)phenyl)piperazin-1-yl)propyl)-3-(2-(2-((2-(2,6-dioxopiperidin-3-yl)-1,3-dioxoisoindolin-4-yl)amino)ethoxy)ethoxy)propenamide]
Wee1 degradation (immunoblot, in words) (Wee1 [1]; MOLT4 cells, 5 hr treatment): induced Wee1 degradation
concentration required to achieve maximal Wee1 degradation (Wee1 [1]; MOLT4 cells, 5 hr treatment): 1 µM
IC50 (Wee1 [13]): 1 to 10 nM

Compound: C=CCn1c(=O)c2cnc(Nc3ccc(N4CCN(C)CC4)cc3)nc2n1-c1cccc(C(C)(C)O)n1 [AZD1775, reference compound]
cell cycle changes [5]: neither ZNL-02-096 nor AZD1775 induced significant cell cycle changes
effect on pCDK1 Y15 ([8]; MOLT4 cells, 1 μM pretreatment alone, independent of ZNL-02-096 co-treatment): decreased pCDK1 Y15
KINOMEscan engagement of Wee1 (Wee1 [9]): strong engagement
IC50 (MOLT4 cells [11]): 800 nM
Wee1 degradation (immunoblot, in words) (Wee1 [1]; MOLT4 cells, 5 hr treatment): insufficient to induce Wee1 degradation
KINOMEscan engagement of PLK1 (PLK1 [14]): strong engagement
effect on cell cycle (G2/M proportion) (MOLT4 cells [2]): did not appreciably affect the cell cycle
dose needed to elicit the same cell cycle changes as 100 nM ZNL-02-096 (MOLT4 cells [2]): 1 µM
concentration necessary to produce the same downstream changes ([4]; 24 hr): 1 µM
downstream changes (pCDK1 Y15, PARP cleavage, γH2Ax) ([4]; 24 hr): did not produce these downstream changes
